The results in this text go back to article PMC10108347, “Heterobifunctional Ligase Recruiters Enable pan-Degradation of Inhibitor of Apoptosis Proteins” (Journal of Medicinal Chemistry, 2023).

In one data set the test system is SUDHL4. Kind of data set: CellTiter-Glo cell viability assay, SUDHL4. The data set is classed as cell-based. Particulars: Homo sapiens. On the technique in general: Cellular ATP, detected with luciferase, serves as a proxy for viable cell number.
For data set [1], the target named is T1, XIAP (Homo sapiens, UniProt P98170). In words: Immunoblotting (western blot) quantification of XIAP levels in MM.1S cells. Also on record: Dmax: dose or concentration left out as unconfirmed.
T1 sequence (P98170 whole entry): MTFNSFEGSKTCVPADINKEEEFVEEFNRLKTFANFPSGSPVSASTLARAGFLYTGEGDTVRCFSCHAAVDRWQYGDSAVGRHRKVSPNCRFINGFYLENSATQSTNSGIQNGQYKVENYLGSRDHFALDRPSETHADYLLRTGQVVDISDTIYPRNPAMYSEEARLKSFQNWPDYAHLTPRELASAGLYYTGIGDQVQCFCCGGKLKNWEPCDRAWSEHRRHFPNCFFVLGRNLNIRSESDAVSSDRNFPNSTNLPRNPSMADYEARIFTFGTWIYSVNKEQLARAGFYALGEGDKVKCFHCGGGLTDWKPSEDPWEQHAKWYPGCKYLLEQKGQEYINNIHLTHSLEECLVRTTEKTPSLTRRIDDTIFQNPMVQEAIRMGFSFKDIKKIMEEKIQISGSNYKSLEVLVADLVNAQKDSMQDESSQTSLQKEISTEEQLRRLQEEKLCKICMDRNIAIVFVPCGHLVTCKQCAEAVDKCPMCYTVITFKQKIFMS
The next data set has as its target cIAP1 (Homo sapiens, UniProt Q13490). In words: Immunoblotting (western blot) quantification of cIAP1 levels in MM.1S cells. Also on record: Dmax: dose or concentration left out as unconfirmed.
Data set [2] has as its target T1, XIAP. Kind of data set: diaPASEF quantitative proteomics in MM.1S cells: XIAP. Also on record: endogenous in cells; host or cells: MM.1S. As to conditions: 3 h; for logFC XIAP: 0.1 μM, log2 fold change compound vs CTRLs (limma); for XIAP level in global proteomics (in words): 100 nM, diaPASEF. The format is cell-based. On the procedure: To analyze the proteome-wide degradation selectivity of hetero-PROTACs 9, 25, and 27, a diaPASEF-based mass spectrometry approach was employed.[54] MM.1S cells were treated with 100 nM PROTACs for 3 h. […] Accordingly, global proteomic plots show the mathematically imputed levels of IAP proteins in treatment groups if the corresponding IAP was detected in the control treatment (see also Experimental Section).
MM1s cells were treated with DMSO or 0.1 μM of compound for 3 h. The cells were harvested by centrifugation and washed with phosphate-buffered saline before snap-freezing in liquid nitrogen. The cells were lysed by addition of lysis buffer (8 M urea, 50 mM NaCl, 50 mM 4-(2-hydroxyethyl)-1-piperazine-ethanesulfonic acid (EPPS) pH 8.5, protease, and phosphatase inhibitors) and homogenization by bead beating (BioSpec) for three repeats of 30 s at 2400. Bradford assay was used to determine the final protein concentration in the clarified cell lysate. 50 μg of protein for each sample was reduced, alkylated, and precipitated using methanol/chloroform as previously described,[64] and the resulting washed precipitated protein was allowed to air dry. The precipitated protein was resuspended in 4 M urea, 50 mM HEPES pH 7.4, followed by dilution to 1 M urea with the addition of 200 mM EPPS, pH 8. Proteins were first digested with LysC (1:50; enzyme/protein) for 12 h at RT. The LysC digestion was diluted to 0.5 M urea with 200 mM EPPS pH 8, followed by digestion with trypsin (1:50; enzyme/protein) for 6 h at 37 °C. Sample digests were acidified with formic acid to a pH of 2–3 prior to desalting using C18 solid-phase extraction plates (SOLA, Thermo Fisher Scientific). Desalted peptides were dried in a vacuum centrifuge and reconstituted in 0.1% formic acid for LC–MS analysis.
Data were collected using a TimsTOF Pro2 (Bruker Daltonics, Bremen, Germany) coupled to a nanoElute LC pump (Bruker Daltonics, Bremen, Germany) via a CaptiveSpray nanoelectrospray source. Peptides were separated on a reversed-phase C18 column (25 cm × 75 μm ID, 1.6 μM, IonOpticks, Australia) containing an integrated captive spray emitter. Peptides were separated using a 50 min gradient of 2–30% buffer B (acetonitrile in 0.1% formic acid) with a flow rate of 250 nL/min and column temperature maintained at 50 °C.
Data-Dependent Acquisition (DDA) was performed in the Parallel Accumulation-Serial Fragmentation (PASEF) mode to determine effective ion mobility windows for downstream diaPASEF data collection.[54] The diaPASEF parameters included 100% duty cycle using accumulation and ramp times of 50 ms each, 1 TIMS-MS scan, and 10 PASEF ramps per acquisition cycle. The TIMS-MS survey scan was acquired between 100–1700 m/z and 1/K0 of 0.7–1.3 V × s/cm^2. Precursors with 1–5 charges were selected, and those that reached an intensity threshold of 20,000 arbitrary units were actively excluded for 0.4 min. The quadrupole isolation width was set to 2 m/z for m/z < 700 and 3 m/z for m/z > 800, with the m/z between 700 and 800 m/z being interpolated linearly. The TIMS elution voltages were calibrated linearly with three points (Agilent ESI-L Tuning Mix Ions; 622, 922, 1222 m/z) to determine the reduced ion mobility coefficients (1/K0). To perform diaPASEF, the precursor distribution in the DDA m/z-ion mobility plane was used to design an acquisition scheme for DIA data collection, which included two windows in each 50 ms diaPASEF scan. Data was acquired using 16 of these 25 Da precursor double window scans (creating 32 windows), which covered the diagonal scan line for doubly and triply charged precursors, with singly charged precursors able to be excluded by their position in the m/z-ion mobility plane. These precursor isolation windows were defined between 400–1200 m/z and 1/K0 of 0.7–1.3 V × s/cm^2. […]

A further data set deals with JJN3. In words: CellTiter-Glo cell viability assay, JJN3. Particulars: Homo sapiens. The format is cell-based.
In another data set the target is cIAP2 (Homo sapiens, UniProt Q13489). In words: Immunoblotting (western blot) quantification of cIAP2 levels in MM.1S cells. Also on record: Dmax: dose or concentration left out as unconfirmed.
Chain of cIAP2 (Q13489 whole entry): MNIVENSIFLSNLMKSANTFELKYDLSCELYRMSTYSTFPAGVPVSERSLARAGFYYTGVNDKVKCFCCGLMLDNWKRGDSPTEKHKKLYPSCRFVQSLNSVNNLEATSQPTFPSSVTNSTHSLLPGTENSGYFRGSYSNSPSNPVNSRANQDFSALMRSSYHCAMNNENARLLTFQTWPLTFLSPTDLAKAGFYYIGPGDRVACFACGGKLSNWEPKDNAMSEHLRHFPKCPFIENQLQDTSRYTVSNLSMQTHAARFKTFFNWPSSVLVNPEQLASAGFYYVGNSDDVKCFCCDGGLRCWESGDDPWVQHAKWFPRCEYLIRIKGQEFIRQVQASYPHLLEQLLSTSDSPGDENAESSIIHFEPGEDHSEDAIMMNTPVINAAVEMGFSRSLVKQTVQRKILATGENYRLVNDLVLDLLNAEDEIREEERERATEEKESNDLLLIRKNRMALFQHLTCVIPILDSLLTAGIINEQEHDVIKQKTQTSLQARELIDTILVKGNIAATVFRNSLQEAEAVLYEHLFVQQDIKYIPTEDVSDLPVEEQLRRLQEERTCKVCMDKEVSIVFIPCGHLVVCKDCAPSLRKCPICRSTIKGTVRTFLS
The nature of data set [3]: Log D7.4 measurement by chromatographic (fast-gradient HPLC) method. As to conditions: pH 7.4.
Protocol: The system was calibrated by plotting the retention times of six different drugs (atenolol, metoprolol, labetalol, diltiazem, triphenylene, and permethrin) versus their literature-known log D7.4 in a calibration line (R^2 = 0.99). Subsequently, the mean retention times of the analytes were taken to calculate their log D7.4 values with the aid of the calibration line. At least two independent measurements of each analyte were performed.
The test system of a further data set is NCI-H929. Kind of data set: CellTiter-Glo cell viability assay, NCI-H929. The data set is classed as cell-based. Particulars: Homo sapiens.
The mark [4] stands for this setting: MM.1S cells, 16 h, western blot, 0.1 or 1 μM.
Where [5] appears, read: MM1.S, 16 h, read-out: %remaining protein XIAP, MM.1S cells, 16 h treatment at 0.1 μM, normalized to loading control and DMSO.
Setting [6] is: MM1.S, 16 h, read-out: %remaining protein cIAP1, MM.1S cells, 16 h treatment at 0.1 μM, normalized to loading control and DMSO.
Where [7] appears, read: MM1.S, 16 h, read-out: %remaining protein cIAP2, MM.1S cells, 16 h treatment at 0.1 μM, normalized to loading control and DMSO.

Entries after “also recorded” stand apart in the source; their conditions may differ. Like-named read-outs stand apart in the source and are kept apart here.

The term chromatographic logD denotes a lipophilicity value derived from retention on a column. In general, Dmax refers to the greatest extent of degradation seen.

Chain of cIAP1 (Q13490 whole entry): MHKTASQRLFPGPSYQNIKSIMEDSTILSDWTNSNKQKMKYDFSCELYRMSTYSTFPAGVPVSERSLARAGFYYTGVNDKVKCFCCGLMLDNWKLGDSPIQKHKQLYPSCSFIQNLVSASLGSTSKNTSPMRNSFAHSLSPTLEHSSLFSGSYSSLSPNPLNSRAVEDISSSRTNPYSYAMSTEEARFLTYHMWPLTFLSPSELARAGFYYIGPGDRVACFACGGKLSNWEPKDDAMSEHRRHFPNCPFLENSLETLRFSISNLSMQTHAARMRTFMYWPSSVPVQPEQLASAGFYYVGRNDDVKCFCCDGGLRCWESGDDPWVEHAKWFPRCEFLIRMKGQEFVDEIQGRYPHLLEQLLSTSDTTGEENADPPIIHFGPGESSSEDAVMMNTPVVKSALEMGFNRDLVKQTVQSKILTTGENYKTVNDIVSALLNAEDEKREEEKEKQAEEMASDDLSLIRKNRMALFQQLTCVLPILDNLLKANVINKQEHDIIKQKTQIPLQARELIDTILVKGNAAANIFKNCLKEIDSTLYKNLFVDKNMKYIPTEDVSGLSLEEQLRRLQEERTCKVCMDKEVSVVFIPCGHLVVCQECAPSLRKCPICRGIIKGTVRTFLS

Consider `CN[C@@H](C)C(=O)N[C@H](C(=O)N1C[C@@H](Oc2cccc(OCCOCCCCCCOCCCCCCNc3cccc4c3C(=O)N(C3CCC(=O)NC3=O)C4=O)c2)C[C@H]1C(=O)N[C@@H]1CCCc2ccccc21)C1CCCCC1` (stereo partly drawn) [PROTAC 25, (2S,4S)-1-((S)-2-Cyclohexyl-2-((S)-2-(methylamino)propanamido)acetyl)-4-(3-(2-((6-((6-((2-(2,6-dioxopiperidin-3-yl)-1,3-dioxoisoindolin-4-yl)amino)hexyl)oxy)hexyl)oxy)ethoxy)phenoxy)-N-((R)-1,2,3,4-tetrahydronaphthalen-1-yl)pyrrolidine-2-carboxamide], for which the IC50 in the data set on SUDHL4 (SU-DHL-4, read-out: SUDHL4) worked out at 920 nM; in the data set on JJN3 (JJN-3, read-out: JJN3), 180 nM; in the data set on NCI-H929 (NCI-H929, 96 h, read-out: IC50 cell viability NCI-H929) it was 27 nM. In addition, the remaining activity at 0.1 µM on XIAP [1] (MM1.S, 16 h, read-out: %remaining protein XIAP) came out at 2%; at cIAP1 (MM1.S, 16 h, read-out: %remaining protein cIAP1) it was 5%; on cIAP2 (MM1.S, 16 h, read-out: %remaining protein cIAP2), 8%. On XIAP [2], the “logFC XIAP” value is listed as -3.7. In addition, on XIAP [2], the “XIAP level in global proteomics (in words)” value (“XIAP level” below) was “below the detection level”. Besides, the chromatographic logD in data set [3] was 6.
Consider `CN[C@@H](C)C(=O)N[C@@H](C(=O)N1CCC[C@H]1C(=O)N[C@@H]1c2ccccc2C[C@@H]1OCC#CC#CCO[C@H]1Cc2ccccc2[C@H]1NC(=O)[C@@H]1CCCN1C(=O)[C@H](NC(=O)[C@H](C)NC)C1CCCCC1)C1CCCCC1` [AZD5582, reference compound], for which the IC50 in the data set on SUDHL4 (SU-DHL-4, SI csv, head prints only the cell line, no quantity or unit, values parallel Table 1/S8, read-out: SUDHL4) was 1640 nM; with JJN3 (JJN-3, SI csv, head prints only the cell line, no quantity or unit, values parallel Table 1/S8, read-out: JJN3), 200 nM; in the data set on NCI-H929 (SI csv, head prints only the cell line, no quantity or unit, values parallel Table 1/S8, read-out: NCI-H929) it was 14 nM. The “XIAP degradation (in words)” value at XIAP [1] (setting [4]) was “failed to degrade XIAP; also recorded: did not influence XIAP levels even at 1 μM”. The “cIAP1 degradation (in words)” value at cIAP1 (setting [4]) is “substantial degradation”. For the same molecule, the “XIAP level” value at XIAP [2] is listed as “did not cause XIAP degradation”. For the same molecule, the “cIAP2 degradation (in words)” value on cIAP2 (setting [4]) was “substantial degradation”. The chromatographic logD in data set [3] worked out at 4.1.
With `CN[C@@H](C)C(=O)N[C@H](C(=O)N1C[C@@H](Oc2cccc(OCCCCCCOCCCCCCOCCCCCCNc3cccc4c3C(=O)N(C3CCC(=O)NC3=O)C4=O)c2)C[C@H]1C(=O)N[C@@H]1CCCc2ccccc21)C1CCCCC1` (stereo partly drawn) [PROTAC 27, (2S,4S)-1-((S)-2-Cyclohexyl-2-((S)-2-(methylamino)propanamido)acetyl)-4-(3-((6-((6-((6-((2-(2,6-dioxopiperidin-3-yl)-1,3-dioxoisoindolin-4-yl)amino)hexyl)oxy)hexyl)oxy)hexyl)oxy)phenoxy)-N-((R)-1,2,3,4-tetrahydronaphthalen-1-yl)pyrrolidine-2-carboxamide], the remaining activity at 0.1 µM on XIAP [1] (setting [5]) was determined as 8%; at cIAP1 (setting [6]), 27%; on cIAP2 (setting [7]) it was 46%. For the same molecule, the “XIAP level” value on XIAP [2] is on record as “selective XIAP degradation”. This molecule also came in with a chromatographic logD in data set [3] of 7.2.
Regarding `CN[C@@H](C)C(=O)N[C@H](C(=O)N1C[C@@H](Oc2cccc(OCCCCC(=O)N[C@H](C(=O)N3C[C@H](O)C[C@H]3C(=O)N[C@@H](C)c3ccc(-c4scnc4C)cc3)C(C)(C)C)c2)C[C@H]1C(=O)N[C@@H]1CCCc2ccccc21)C1CCCCC1` [PROTAC 9, (2S,4S)-1-((S)-2-Cyclohexyl-2-((S)-2-(methylamino)propanamido)acetyl)-4-(3-((5-(((S)-1-((2S,4R)-4-hydroxy-2-(((S)-1-(4-(4-methylthiazol-5-yl)phenyl)ethyl)carbamoyl)pyrrolidin-1-yl)-3,3-dimethyl-1-oxobutan-2-yl)amino)-5-oxopentyl)oxy)phenoxy)-N-((R)-1,2,3,4-tetrahydronaphthalen-1-yl)pyrrolidine-2-carboxamide], the IC50 was determined as 1690 nM in the data set on SUDHL4 (SU-DHL-4, DLBCL cell line, 96 h, TNFα-challenged, read-out: IC50 cell viability SUDHL4); 1140 nM with JJN3 (JJN-3, MM cell line, 96 h, TNFα-challenged, read-out: IC50 cell viability JJN3); 8.5 nM in the data set on NCI-H929 (NCI-H929, MM cell line, 96 h, TNFα-challenged, read-out: IC50 cell viability NCI-H929). Besides, the figures for the remaining activity at 0.1 µM on XIAP [1] (setting [5]), on cIAP1 (setting [6]) and on cIAP2 (setting [7]) were 7%, 5% and 21%, respectively. Besides, the Dmax on XIAP [1] (MM1.S, read-out: Dmax XIAP (maximum degradation), MM.1S cells, 16 h) came out at 99%; on cIAP1 (MM1.S, read-out: Dmax cIAP1 (maximum degradation), MM.1S cells, 16 h), 99%; at cIAP2 (MM1.S, read-out: Dmax cIAP2 (maximum degradation), MM.1S cells, 16 h), 90%. The “Dmax XIAP (maximum degradation)” value at XIAP [1] (MM.1S cells, 16 h, at 0.1 μM) is given as over 99%. Moreover, the DC50 at XIAP [1] (read-out: DC50,16h XIAP, MM.1S cells, 16 h, densitometric quantification of western blots, n = 4) was found to be 0.7 nM; on cIAP1 (read-out: DC50,16h cIAP1, MM.1S cells, 16 h, densitometric quantification of western blots, n = 4), 2.4 nM; on cIAP2 (read-out: DC50,16h cIAP2, MM.1S cells, 16 h, densitometric quantification of western blots, n = 4) it was 6.2 nM. Besides, the “Dmax cIAP1 (maximum degradation)” value on cIAP1 (MM.1S cells, 16 h, at 0.1 μM) is over 99%. The “logFC XIAP” value on XIAP [2] was -1.764. For the same molecule, the “XIAP level” value at XIAP [2] is given as “below the detection level”. For the same molecule, the “Dmax cIAP2 (maximum degradation)” value on cIAP2 (MM.1S cells, 16 h, at 0.1 μM) is on record as over 90%.
